Reference: ChEMBL document CHEMBL4342474, “Scaffold and Parasite Hopping: Discovery of New Protozoal Proliferation Inhibitors” (ACS Med Chem Lett, 2020)
pEC50: −log10 of the molar value. Values after ≈ are worked out from the molar mass of the structure shown.

Tests used:
[1] = test system: Plasmodium falciparum; experiment: Antiplasmodial activity against chloroquine-sensitive mefloquine resistant Plasmodium falciparum D6; format: functional, organism-based
[2] = test system: Trypanosoma cruzi; experiment: Antitrypanosomal activity against Trypanosoma cruzi Tulahuen amastigotes measured after 96 hrs by beta-galactosidase reporter gene assay; format: functional, organism-based
[3] = test system: Leishmania major; experiment: Antileishmanial activity against Leishmania major; format: functional, organism-based
[4] = test system: Trypanosoma cruzi; experiment: Antitrypanosomal activity against Trypanosoma cruzi CaI-72 trypomastigotes infected in mouse C2C12 cells measured after 72 hrs by DAPI staining based assay; format: functional, organism-based; settings: CaI-72, C2C12, 72 h
[5] = Selectivity index, ratio of TC50 for mouse C2C12 cells to EC50 for antitrypanosomal activity against Trypanosoma cruzi CaI-72 trypomastigotes infected in mouse C2C12 cells; format: toxicity, cell-based
[6] = test system: Leishmania major; experiment: Antileishmanial activity against Leishmania major amastigotes infected in mouse RAW 264.7 cells by luciferase reporter gene assay; format: functional, organism-based; settings: RAW264.7
[7] = test system: Plasmodium falciparum; experiment: Antiplasmodial activity against Plasmodium falciparum D6 measured after 72 hrs by SYBR green fluorescence dye based microplate reader analysis; format: functional, organism-based; settings: D6, 72 h
[8] = Selectivity index, ratio of TC50 for human HepG2 cells to EC50 for antiplasmodial activity against Plasmodium falciparum D6; format: toxicity
[9] = Aqueous solubility of compound at pH 7.4; format: physicochemical
[10] = Protein binding in human plasma; format: ADME, cell-free; settings: read-out: PPB (converted)
[11] = Intrinsic clearance in human liver microsomes assessed as per mg protein; format: ADME, Microsome; settings: liver microsomes, read-out: CLH
[12] = Intrinsic clearance in rat hepatocytes assessed as per million cells; format: ADME, cell-based, Hepatocyte; settings: read-out: CLH
[13] = Cytotoxicity against mouse C2C12 cells assessed as reduction in cell viability; format: cell-based; settings: read-out: TC50 (the source's name)
[14] = test system: Trypanosoma cruzi; experiment: Antitrypanosomal activity against Trypanosoma cruzi Tulahuen trypomastigotes infected in mouse NIH/3T3 cells measured after 96 hrs by beta-galactosidase reporter gene assay; format: functional, organism-based; settings: NIH3T3, 96 h
[15] = test system: Plasmodium falciparum; experiment: Antiplasmodial activity against Plasmodium falciparum W2 after 72 hrs by SYBR Green fluorescence assay; format: functional, organism-based; settings: W2, 72 h
[16] = test system: Plasmodium falciparum; experiment: Antiplasmodial activity against Plasmodium falciparum TM91C235 after 72 hrs by SYBR Green fluorescence assay; format: functional, organism-based; settings: TM91C235, 72 h

SMILES | pEC50 [1] | pEC50 [2] | pEC50 [3] | pEC50 [4] | selectivity ratio [5] | pEC50 [6] | pEC50 [7] | selectivity ratio [8] | solubility ([9]; aqueous solution, read-out: solubility) [µM] | fraction unbound [10] | microsomal CLint [11] [µL/min/mg] | hepatocyte CLint [12] [µL/min/1e6 cells] | CC50 [13] [µM] | pEC50 [14] | solubility ([9]; buffer) [µM] | pEC50 [15] | pEC50 [16]
CS(=O)(=O)CCNCc1ccc(-c2ccc3ncnc(Nc4ccc(OCc5cccc(F)c5)c(Cl)c4)c3c2)o1 [LAPATINIB] | 6.28 | 5.82 | < 4.82 | – | – | – | – | – | – | – | – | – | – | – | – | – | –
O=S(=O)(c1ccc(-c2ccc3nccc(N[C@@H]4CCCC[C@H]4O)c3c2)cc1)N1CCOCC1 | – | – | – | 6.48 | > 30 | < 4.66 | 6.40 | > 80 | 137 (≈ 64.1 µg/mL) | 0.28 | 43 | 30 | > 10 | – | – | – | –
CN1CCN(c2ncc(-c3ccc4c(Nc5cnccn5)ccnc4c3)cn2)CC1 | – | 5.22 | < 4.82 | – | – | < 4.82 | 7.59 | – | – | – | – | 127 | – | 5.22 | […] | 7.21 | 7.43
